The numbers were not newly measured in US8158153B2, “Nanoparticulate bisphosphonate compositions” (Alkermes Pharma Ireland Limited, priority 2005, dated 2012), which cites them from elsewhere.

For data set [1] the following is noted: patients; clinical use.
For data set [2] the following is noted: 1% solution in distilled water.

“Also recorded” adds a separate entry of the source. Structures can show the parent of a compound that is named as a salt.

On to `CCCCCN(C)CCC(O)(P(=O)([O-])O)P(=O)(O)O.O.[Na+]` [Ibandronate sodium, 3-(N-methyl-N-pentyl) amino-1-hydroxypropane-1,1-diphosphonic acid, monosodium salt, monohydrate], for which the solubility in water entry is recorded as “freely soluble”. The “side effects / adverse effects” value in data set [1] is on record as “gastrointestinal irritation”. Moreover, the “solubility in organic solvents” value (organic solvents) is recorded as “practically insoluble”.
Take `CC(O)(P(=O)([O-])[O-])P(=O)(O)O.[Na+].[Na+]` [etidronate disodium, disodium salt of (1-hydroxyethylidene) diphosphonic acid]: the solubility in water result is given as “highly soluble”.
`NCCC(O)(P(=O)([O-])O)P(=O)([O-])O.[Na+].[Na+]` [Pamidronate disodium, phosphonic acid (3-amino-1-hydroxypropylidene) bis-, disodium salt, pentahydrate]: the “pH of a 1% solution” value in data set [2] is listed as “approximately 8.3”. The “side effects / adverse effects” value in data set [1] was “esophageal ulcers; also recorded: pain at the site of catheter insertion; also recorded: gastrointestinal pain”.
Consider `O=P(O)(O)C(O)(Cc1cccnc1)P(=O)(O)O` [Risedronate sodium, [1-hydroxy-2-(3-pyridinyl)ethylidene]bis[phosphonic acid] monosodium salt], for which the “side effects / adverse effects” value in data set [1] is reported as “gastrointestinal irritation”.
